Assay results from US6509365B1, “2-phenylbenzimidazoles and 2-phenylindoles, and production and use thereof” (BASF Aktiengesellschaft, priority 1998, dated 2003).

Key:
[1] = biological target: T1, PARP enzyme present in the cells (human cell line C4I) (Homo sapiens, UniProt P09874); experiment: Test of PARP inhibitors in a cellular assay (H2O2-induced PAR formation, immunofluorescence); type: cell-based; conditions: 1 mM hydrogen peroxide, FITC signal standardized to DAPI
T1 construct: endogenous in cells; host or cells: human cell line C4I
T1 sequence (P09874 whole entry): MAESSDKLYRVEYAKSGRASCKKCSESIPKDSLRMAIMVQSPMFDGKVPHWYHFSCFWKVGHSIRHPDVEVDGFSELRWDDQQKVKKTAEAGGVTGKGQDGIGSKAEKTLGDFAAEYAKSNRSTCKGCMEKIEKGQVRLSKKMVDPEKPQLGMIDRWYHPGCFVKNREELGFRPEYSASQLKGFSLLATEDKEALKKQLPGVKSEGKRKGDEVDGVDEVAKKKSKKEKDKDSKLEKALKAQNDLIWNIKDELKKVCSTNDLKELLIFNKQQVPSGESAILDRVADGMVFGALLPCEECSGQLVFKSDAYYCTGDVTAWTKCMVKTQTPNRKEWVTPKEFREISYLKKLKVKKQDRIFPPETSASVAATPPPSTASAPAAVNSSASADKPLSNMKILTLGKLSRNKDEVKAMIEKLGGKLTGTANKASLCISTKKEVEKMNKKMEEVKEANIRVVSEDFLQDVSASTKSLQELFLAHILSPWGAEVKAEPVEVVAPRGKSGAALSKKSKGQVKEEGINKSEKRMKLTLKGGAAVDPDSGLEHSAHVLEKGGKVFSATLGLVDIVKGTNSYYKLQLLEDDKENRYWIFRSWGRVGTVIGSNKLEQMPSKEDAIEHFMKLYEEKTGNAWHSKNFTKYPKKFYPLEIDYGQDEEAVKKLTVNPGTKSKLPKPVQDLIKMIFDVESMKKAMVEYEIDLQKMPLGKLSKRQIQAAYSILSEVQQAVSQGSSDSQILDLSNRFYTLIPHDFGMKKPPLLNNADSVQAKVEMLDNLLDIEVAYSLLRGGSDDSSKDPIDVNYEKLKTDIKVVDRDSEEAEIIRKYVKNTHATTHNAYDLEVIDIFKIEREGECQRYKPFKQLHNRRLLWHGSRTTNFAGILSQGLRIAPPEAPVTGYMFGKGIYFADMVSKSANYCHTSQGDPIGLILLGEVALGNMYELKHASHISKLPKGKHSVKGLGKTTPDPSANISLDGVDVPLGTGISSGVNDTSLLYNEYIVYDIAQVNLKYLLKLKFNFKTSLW
Description: To test the action of PARP inhibitors, eukaryotic cell lines are treated with chemicals such that the DNA of the cell line is damaged and as a result the PARP enzyme present in the cells is activated. Due to the activation of the enzyme, chains of poly-ADP-ribose (PAR) are formed on proteins. These chains are bound by a specific antibody. This is in turn bound by a second antibody which is provided with a fluorescent label. The fluorescence is measured using a fluorescence scanner and behaves proportionately to the activity of the enzyme PARP. PARP inhibitors can be recognized by a weakening of the fluorescence signal. In order to prevent adulterations of the results by different cell counts, the DNA of the cells is labeled with a further dye and its fluorescence is likewise determined in the fluorescence scanner.
400,000 cells of the human cell line C4I are incubated at 37° C., 5% CO2 with 10% fetal bovine serum in RPMI medium in cell culture plates having 24 cavities until a thick cell lawn is obtained. The cells are washed with DMEM and the PARP inhibitors to be tested are added in various concentrations in DMEM. After incubation for 20 min at 37° C., a concentration of 1 mM is established using hydrogen peroxide and the mixture is incubated at 37° C. for a further 10 min. For the control, cells in some cavities are not treated with hydrogen peroxide (no PARP activation) or receive no inhibitor (maximal PARP activation). The cells are washed once with PBS and fixed at −20° C. for 10 min by addition of methanol/acetone mixture which is precooled to −20° C. (7 parts methanol, 3 parts acetone). The cells are then dried, rehydrated at room temperature for 10 min by addition of PBS, and nonspecific binding sites are blocked for 30 min at room temperature in PBS with 0.05% Tween 20 and 5% dried milk powder. […] The FITC and DAPI fluorescence is measured at several sites in the cavities with the aid of a fluorescence scanner. […] The IC50 values are calculated by semilogarithmic plotting of the standardized values of the various inhibitor concentrations.

[2] = system: circulatory shock; conditions: S. Cuzzocrea et al., Br. J. Pharmacol. 1997; cited from earlier work
[3] = Determination of the water solubility; type: physicochemical; conditions: pH 5 to 6 adjusted with sodium acetate solution, DMSO ≦1% if not a water-soluble salt
Description: A compound to be measured is dissolved directly in a specified volume of water and the resulting solution is adjusted to pH 5 to 6 using a sodium acetate solution so that the concentration of the active compound to be tested is achieved. If the measured substance is not present as a water-soluble salt, this was dissolved in as little dimethyl sulfoxide as possible and then diluted with water (final concentration of dimethyl sulfoxide ≦1%), after which the pH was additionally adjusted here too.

Row | SMILES | IC50 [1] [µM] | also measured
1 | CN(C)CCc1cc(-c2nc3c(C(N)=O)cccc3[nH]2)ccc1[N+](=O)[O-] [Example 3] | 0.118 | –
2 | NC(=O)c1cccc(N)c1 [3-aminobenzamide] | – | protective effects in a model for circulatory shock [2]: protective effects
3 | COc1ccc(-c2nc3cccc(C(N)=O)c3[nH]2)cc1 [NU 1076] | – | solubility [3]: < 0.01%

Further lines, with some results ahead:

Row | IC50 [1] [µM] | SMILES | also measured
4 | 0.119 | CN(C)CCN(C)c1ccc(-c2nc3c(C(N)=O)cccc3[nH]2)cc1 [Example 2] | –
5 | 0.115 | CCN(CC)CCN(C)c1ccc(-c2nc3c(C(N)=O)cccc3[nH]2)cc1 [Example 1] | –
